Assay [1] deals with HepG2. Put plainly: Induction of apoptosis in human HepG2 cells assessed as early apoptotic cells at 5 uM after 24 to 72 hrs by Annexin V-FITC/propidium iodide staining based flow cytometric method (reference value: 1.28%). In kind it is functional. A general note: A flow cytometer gives signals particle by particle.
Assay [2] deals with HepG2. As to the kind of experiment: Induction of apoptosis in human HepG2 cells assessed as late apoptotic cells at 5 uM after 24 to 72 hrs by Annexin V-FITC/propidium iodide staining based flow cytometric method (reference value: 4.56%). In kind it is functional.
The target of assay [3] is RAF proto-oncogene serine/threonine-protein kinase (Homo sapiens, UniProt P04049). As to the kind of experiment: Inhibition of RAF (unknown origin) measured after 40 mins by Kinase Glo luminescence assay.
For assay [4], the system named is HepG2. Put plainly: Induction of apoptosis in human HepG2 cells assessed as decrease in Bcl-2 expression at 2 to 10 uM after 30 mins to 24 hrs by Western blot method. Format: functional, cell-based. Background: A western blot detects proteins with antibodies after separation by electrophoresis.
Assay [5] relates to HepG2. Put plainly: Induction of apoptosis in human HepG2 cells assessed as late apoptotic cells at 2 uM after 24 to 72 hrs by Annexin V-FITC/propidium iodide staining based flow cytometric method (reference value: 4.56%). Format: functional.
The test system of assay [6] is HepG2. As to the kind of experiment: Induction of apoptosis in human HepG2 cells assessed as increase in cleaved caspase-3 level at 5 to 10 uM after 30 mins to 24 hrs by Western blot method. Format: functional, cell-based.
Assay [7] relates to HepG2. Put plainly: Induction of apoptosis in human HepG2 cells assessed as early apoptotic cells at 2 uM after 24 to 72 hrs by Annexin V-FITC/propidium iodide staining based flow cytometric method (reference value: 1.28%). In kind it is functional.
Assay [8] has as its system HepG2. Put plainly: Induction of apoptosis in human HepG2 cells assessed as increase in cytochrome-c expression at 10 uM after 30 mins to 24 hrs by Western blot method. Format: functional, cell-based.
For assay [9], the target named is Aurora kinase B (Homo sapiens, UniProt Q96GD4). Put plainly: Inhibition of Aurora B (unknown origin) measured after 40 mins by Kinase Glo luminescence assay.
Assay [10] addresses Dual specificity mitogen-activated protein kinase kinase; MEK1/2 (Homo sapiens, UniProt P36507+Q02750). Put plainly: Inhibition of MEK (unknown origin) measured after 40 mins by Kinase Glo luminescence assay. A general note: In Kinase-Glo more light means more ATP remaining.
Assay [11] concerns the target Hepatocyte growth factor receptor (Homo sapiens, UniProt P08581). As to the kind of experiment: Inhibition of c-MET (unknown origin) measured after 40 mins by Kinase Glo luminescence assay.
Assay [12] deals with Vascular endothelial growth factor receptor 2 (Homo sapiens, UniProt P35968). As to the kind of experiment: Inhibition of VEGFR2 (unknown origin) measured after 40 mins by Kinase Glo luminescence assay.
Assay [13] concerns HepG2. As to the kind of experiment: Induction of apoptosis in human HepG2 cells assessed as increase in Bax expression at 2 to 10 uM after 30 mins to 24 hrs by Western blot method. Format: functional, cell-based.
In assay [14] the test system is HepG2. Put plainly: Induction of apoptosis in human HepG2 cells assessed as late apoptotic cells at 10 uM after 24 to 72 hrs by Annexin V-FITC/propidium iodide staining based flow cytometric method (reference value: 4.56%). In kind it is functional.
The test system of assay [15] is HepG2. Put plainly: Antiproliferative activity against human HepG2 cells after 72 hrs by sulforhodamine B assay. Format: functional, cell-based. The settings on record: HepG2, 72 h.
Assay [16] concerns HepG2. Put plainly: Induction of apoptosis in human HepG2 cells assessed as nuclear chromatin condensation at 2 to 10 uM after 15 mins to 24 hrs by Hoechst 33258 staining based fluorescence microscopic method. Format: functional, cell-based.
Assay [17] deals with HepG2. Put plainly: Induction of apoptosis in human HepG2 cells assessed as early apoptotic cells at 10 uM after 24 to 72 hrs by Annexin V-FITC/propidium iodide staining based flow cytometric method (reference value: 1.28%). In kind it is functional.
The subject of assay [18] is HepG2. As to the kind of experiment: Induction of apoptosis in human HepG2 cells after 24 to 72 hrs by Annexin V-FITC/propidium iodide staining based flow cytometric method. Format: functional, cell-based.
For assay [19], the system named is HepG2. As to the kind of experiment: Induction of apoptosis in human HepG2 cells assessed as decrease in mitochondrial membrane potential after 15 mins to 24 hrs by JC1 staining based fluorescence microscopic method. Format: functional, cell-based.
Assay [20] relates to HepG2. Put plainly: Induction of apoptosis in human HepG2 cells assessed as appearance of apoptotic bodies at 2 to 10 uM after 15 mins to 24 hrs by Hoechst 33258 staining based fluorescence microscopic method. Format: functional, cell-based.
The target of assay [21] is Epidermal growth factor receptor (Homo sapiens, UniProt P00533). Put plainly: Inhibition of EGFR (unknown origin) measured after 40 mins by Kinase Glo luminescence assay.

By IC50 is commonly meant the concentration at which inhibition is half-maximal.

Calls of active or inactive are those of the source. No cut-off for these calls is given here. Bounds are passed on as bounds.

Chain of Aurora kinase B (Q96GD4 whole entry): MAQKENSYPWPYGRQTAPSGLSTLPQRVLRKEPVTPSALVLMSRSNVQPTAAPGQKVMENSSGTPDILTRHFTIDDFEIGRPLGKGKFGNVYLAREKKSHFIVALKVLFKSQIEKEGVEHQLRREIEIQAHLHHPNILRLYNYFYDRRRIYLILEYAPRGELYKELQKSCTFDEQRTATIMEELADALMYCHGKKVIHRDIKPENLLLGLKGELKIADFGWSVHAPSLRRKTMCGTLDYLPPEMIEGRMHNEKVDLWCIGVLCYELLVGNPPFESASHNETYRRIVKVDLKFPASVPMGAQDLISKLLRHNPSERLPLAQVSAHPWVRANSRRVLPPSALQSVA
Chain of Epidermal growth factor receptor (P00533 whole entry): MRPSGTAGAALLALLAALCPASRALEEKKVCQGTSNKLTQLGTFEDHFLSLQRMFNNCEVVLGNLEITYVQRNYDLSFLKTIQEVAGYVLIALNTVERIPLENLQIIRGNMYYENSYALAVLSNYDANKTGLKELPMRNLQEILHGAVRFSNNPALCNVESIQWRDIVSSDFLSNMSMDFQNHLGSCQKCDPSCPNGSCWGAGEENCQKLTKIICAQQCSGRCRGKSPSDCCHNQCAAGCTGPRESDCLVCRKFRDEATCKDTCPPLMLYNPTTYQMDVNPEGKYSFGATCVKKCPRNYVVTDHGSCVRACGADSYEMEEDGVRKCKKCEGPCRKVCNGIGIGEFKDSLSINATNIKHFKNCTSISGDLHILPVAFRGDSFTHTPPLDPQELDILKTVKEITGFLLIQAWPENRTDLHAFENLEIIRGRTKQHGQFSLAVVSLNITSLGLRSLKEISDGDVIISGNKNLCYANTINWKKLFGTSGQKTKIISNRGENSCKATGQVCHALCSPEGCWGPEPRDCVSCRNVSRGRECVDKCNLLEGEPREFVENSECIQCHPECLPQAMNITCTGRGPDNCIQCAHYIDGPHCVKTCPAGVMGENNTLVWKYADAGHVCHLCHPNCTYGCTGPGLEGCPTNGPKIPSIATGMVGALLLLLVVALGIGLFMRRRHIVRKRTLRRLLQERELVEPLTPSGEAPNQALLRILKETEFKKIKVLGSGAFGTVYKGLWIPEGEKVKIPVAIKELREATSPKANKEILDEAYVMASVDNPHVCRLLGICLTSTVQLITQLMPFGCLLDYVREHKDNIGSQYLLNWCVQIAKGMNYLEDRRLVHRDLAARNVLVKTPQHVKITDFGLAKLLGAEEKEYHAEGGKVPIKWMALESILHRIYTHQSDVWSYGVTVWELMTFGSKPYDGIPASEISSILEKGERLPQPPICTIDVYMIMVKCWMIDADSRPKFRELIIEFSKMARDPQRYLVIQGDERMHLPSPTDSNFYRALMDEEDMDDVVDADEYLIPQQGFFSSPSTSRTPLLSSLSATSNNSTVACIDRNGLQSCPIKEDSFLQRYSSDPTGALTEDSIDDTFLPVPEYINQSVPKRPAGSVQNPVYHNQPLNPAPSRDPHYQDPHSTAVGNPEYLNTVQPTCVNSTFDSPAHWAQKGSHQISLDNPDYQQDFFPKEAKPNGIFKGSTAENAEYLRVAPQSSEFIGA
Chain of Hepatocyte growth factor receptor (P08581 whole entry): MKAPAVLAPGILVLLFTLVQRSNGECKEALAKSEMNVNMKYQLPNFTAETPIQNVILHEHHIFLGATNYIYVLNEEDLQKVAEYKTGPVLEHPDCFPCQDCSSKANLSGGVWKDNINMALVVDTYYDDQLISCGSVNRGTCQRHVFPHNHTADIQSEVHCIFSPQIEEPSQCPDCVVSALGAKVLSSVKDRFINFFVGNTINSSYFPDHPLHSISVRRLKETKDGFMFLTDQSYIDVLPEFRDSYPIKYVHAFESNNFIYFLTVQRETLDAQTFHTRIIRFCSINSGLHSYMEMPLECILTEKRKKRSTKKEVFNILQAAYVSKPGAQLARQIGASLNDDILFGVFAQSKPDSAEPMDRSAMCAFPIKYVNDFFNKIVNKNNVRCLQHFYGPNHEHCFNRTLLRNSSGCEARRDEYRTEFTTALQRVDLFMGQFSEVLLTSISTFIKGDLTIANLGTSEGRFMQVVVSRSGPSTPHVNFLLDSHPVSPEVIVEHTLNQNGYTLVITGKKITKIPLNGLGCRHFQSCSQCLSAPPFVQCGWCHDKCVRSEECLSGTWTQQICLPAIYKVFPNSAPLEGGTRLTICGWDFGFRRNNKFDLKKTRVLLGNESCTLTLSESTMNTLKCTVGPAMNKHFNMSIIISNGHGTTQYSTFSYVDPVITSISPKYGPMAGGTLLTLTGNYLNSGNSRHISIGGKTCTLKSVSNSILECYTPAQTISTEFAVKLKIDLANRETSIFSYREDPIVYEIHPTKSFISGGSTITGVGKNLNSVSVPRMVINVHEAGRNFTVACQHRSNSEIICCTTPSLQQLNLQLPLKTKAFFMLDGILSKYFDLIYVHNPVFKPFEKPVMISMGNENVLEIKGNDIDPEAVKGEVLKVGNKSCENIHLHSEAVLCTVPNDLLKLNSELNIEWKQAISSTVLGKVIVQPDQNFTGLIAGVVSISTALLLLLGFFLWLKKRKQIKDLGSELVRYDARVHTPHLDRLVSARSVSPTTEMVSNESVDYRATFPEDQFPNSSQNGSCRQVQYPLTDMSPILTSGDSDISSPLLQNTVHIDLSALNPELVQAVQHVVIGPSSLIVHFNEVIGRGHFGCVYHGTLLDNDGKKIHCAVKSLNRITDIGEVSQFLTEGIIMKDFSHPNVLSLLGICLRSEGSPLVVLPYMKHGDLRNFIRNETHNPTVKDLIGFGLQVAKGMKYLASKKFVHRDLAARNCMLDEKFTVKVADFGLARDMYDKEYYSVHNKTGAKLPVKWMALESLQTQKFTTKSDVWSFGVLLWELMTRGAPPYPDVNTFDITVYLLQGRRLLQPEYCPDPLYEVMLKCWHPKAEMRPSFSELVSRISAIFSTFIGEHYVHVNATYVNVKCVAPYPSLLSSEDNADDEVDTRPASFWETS
Chain of Vascular endothelial growth factor receptor 2 (P35968 whole entry): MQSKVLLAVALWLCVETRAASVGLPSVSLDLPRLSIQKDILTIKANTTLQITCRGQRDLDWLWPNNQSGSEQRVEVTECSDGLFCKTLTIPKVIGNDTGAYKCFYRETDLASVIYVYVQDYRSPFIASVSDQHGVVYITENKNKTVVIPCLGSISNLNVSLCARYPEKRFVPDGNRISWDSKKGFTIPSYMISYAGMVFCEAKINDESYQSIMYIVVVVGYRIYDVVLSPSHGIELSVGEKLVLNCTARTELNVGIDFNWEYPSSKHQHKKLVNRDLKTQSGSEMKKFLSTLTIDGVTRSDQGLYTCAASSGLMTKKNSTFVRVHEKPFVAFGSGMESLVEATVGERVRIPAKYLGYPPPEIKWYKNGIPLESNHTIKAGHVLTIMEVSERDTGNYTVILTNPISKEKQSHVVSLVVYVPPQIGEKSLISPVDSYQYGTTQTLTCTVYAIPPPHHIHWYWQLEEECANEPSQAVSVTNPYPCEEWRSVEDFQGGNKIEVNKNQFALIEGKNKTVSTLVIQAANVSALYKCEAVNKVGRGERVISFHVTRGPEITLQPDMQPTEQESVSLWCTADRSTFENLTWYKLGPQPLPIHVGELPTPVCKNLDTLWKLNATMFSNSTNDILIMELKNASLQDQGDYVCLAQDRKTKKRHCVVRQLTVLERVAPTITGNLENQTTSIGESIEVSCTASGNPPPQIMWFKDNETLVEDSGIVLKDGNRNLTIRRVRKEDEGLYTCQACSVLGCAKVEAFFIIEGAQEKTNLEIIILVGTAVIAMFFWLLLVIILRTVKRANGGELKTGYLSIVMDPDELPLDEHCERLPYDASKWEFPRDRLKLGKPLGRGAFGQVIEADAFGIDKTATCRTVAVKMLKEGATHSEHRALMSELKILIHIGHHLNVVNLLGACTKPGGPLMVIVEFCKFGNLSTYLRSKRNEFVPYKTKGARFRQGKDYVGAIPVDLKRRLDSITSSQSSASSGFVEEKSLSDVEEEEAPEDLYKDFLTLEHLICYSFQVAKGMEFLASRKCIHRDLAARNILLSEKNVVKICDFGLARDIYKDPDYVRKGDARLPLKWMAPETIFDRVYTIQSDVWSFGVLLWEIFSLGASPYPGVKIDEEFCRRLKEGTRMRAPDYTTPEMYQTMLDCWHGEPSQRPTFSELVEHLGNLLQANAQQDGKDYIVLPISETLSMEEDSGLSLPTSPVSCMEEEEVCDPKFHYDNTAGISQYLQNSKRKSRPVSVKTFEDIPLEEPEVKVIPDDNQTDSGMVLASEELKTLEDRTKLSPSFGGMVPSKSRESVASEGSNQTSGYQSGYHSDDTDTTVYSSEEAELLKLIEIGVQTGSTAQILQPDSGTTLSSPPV
Chain of RAF proto-oncogene serine/threonine-protein kinase (P04049 whole entry): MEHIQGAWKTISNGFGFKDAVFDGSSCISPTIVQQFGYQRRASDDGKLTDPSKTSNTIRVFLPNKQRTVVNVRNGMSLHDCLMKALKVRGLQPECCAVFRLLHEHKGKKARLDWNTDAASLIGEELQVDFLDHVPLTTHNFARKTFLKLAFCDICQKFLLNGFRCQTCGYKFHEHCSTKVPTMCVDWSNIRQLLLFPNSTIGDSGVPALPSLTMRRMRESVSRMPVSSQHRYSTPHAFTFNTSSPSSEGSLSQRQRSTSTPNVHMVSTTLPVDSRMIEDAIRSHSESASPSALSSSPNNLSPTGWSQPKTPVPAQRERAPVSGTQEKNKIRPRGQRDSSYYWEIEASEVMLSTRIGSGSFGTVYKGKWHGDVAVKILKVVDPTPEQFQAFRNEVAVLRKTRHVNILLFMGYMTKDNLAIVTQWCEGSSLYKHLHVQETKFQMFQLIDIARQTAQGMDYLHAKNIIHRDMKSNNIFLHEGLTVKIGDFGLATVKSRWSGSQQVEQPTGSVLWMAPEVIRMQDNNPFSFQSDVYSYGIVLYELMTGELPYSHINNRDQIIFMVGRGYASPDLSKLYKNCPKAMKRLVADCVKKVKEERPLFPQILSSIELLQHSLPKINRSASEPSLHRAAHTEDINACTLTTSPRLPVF

Regarding `CC(C)(C)OC(=O)NCC(=O)Nc1ccc2ncnc(Nc3cccc(Br)c3)c2c1`, the Activity was 1.96% in assay [1]; 9.25% in assay [2]; 6.38% in assay [5]; 2.08% in [7]; 32.19% in [14]; 1.53% in assay [17]. The Activity entry in assay [18] and in assay [19] was “Dose-dependent effect” in each case. Further, the 50% inhibitory concentration (IC50) in assay [3] was 17.3 µM; in [9], 6.2 µM; in assay [10], 7.35 µM; in [11], greater than 100 µM; in [12], 18.7 µM; in [15] it was 8.3 µM. Moreover, the outcome in assay [4], in assay [6], in assay [8], in [13], in assay [16] and in assay [20] was Active.

As to `CC[C@H](C)[C@@H](NC(=O)OC(C)(C)C)C(=O)Nc1ccc2ncnc(Nc3cccc(C(F)(F)F)c3)c2c1`, the 50% inhibitory concentration (IC50) in assay [9] is greater than 100 µM; in [15] it was greater than 50 µM.

Turning to `COc1cc2c(Nc3ccc(NC(=O)c4ccccc4)cc3)ncnc2cc1OCCCN1CCOCC1`, the 50% inhibitory concentration (IC50) in assay [21] was determined as 0.11 µM; in assay [15] it was 1.4 µM. Further, the figures for the Activity in [14] and in [17] were 8.86% and 1.09%, respectively.

As to `CC(C)C[C@@H](NC(=O)OC(C)(C)C)C(=O)Nc1ccc2ncnc(Nc3ccc(F)c(Cl)c3)c2c1`, the half-maximal inhibitory concentration (IC50) in [9] is greater than 100 µM; in assay [21] it was 0.14 µM; in assay [15], 13.8 µM.

Take `CC(C)[C@@H](NC(=O)OC(C)(C)C)C(=O)Nc1ccc2ncnc(Nc3cccc(Br)c3)c2c1`: the IC50 in assay [9] was greater than 100 µM; in assay [15] it was greater than 50 µM.

On to `CC[C@H](C)[C@@H](NC(=O)OC(C)(C)C)C(=O)Nc1ccc2ncnc(Nc3ccc(F)c(Cl)c3)c2c1`, for which the values for the IC50 in assay [9] and in assay [15] were greater than 100 µM and greater than 50 µM, respectively.

Turning to `CSCC[C@@H](NC(=O)OC(C)(C)C)C(=O)Nc1ccc2ncnc(Nc3cccc(C(F)(F)F)c3)c2c1`, the IC50 was greater than 100 µM in assay [9] and greater than 50 µM in [15].

For the compound `CC(C)[C@@H](NC(=O)OC(C)(C)C)C(=O)Nc1ccc2ncnc(Nc3ccc(F)c(Cl)c3)c2c1`, the IC50 in assay [9] is greater than 100 µM; in [15], greater than 50 µM.

With `CSCC[C@@H](NC(=O)OC(C)(C)C)C(=O)Nc1ccc2ncnc(Nc3cccc(Br)c3)c2c1`, the figures for the IC50 in [9] and in assay [15] were greater than 100 µM and greater than 50 µM, respectively.

With `Cc1cccc(C)c1Nc1ncnc2ccc(NC(=O)CNC(=O)OC(C)(C)C)cc12`, the values for the half-maximal inhibitory concentration (IC50) in assay [9] and in assay [15] were greater than 100 µM and greater than 50 µM, respectively.

As for `C[C@@H](NC(=O)OC(C)(C)C)C(=O)Nc1ccc2ncnc(Nc3ccc(F)c(Cl)c3)c2c1`, the IC50 in [9] is greater than 100 µM; in assay [21], greater than 100 µM; in assay [15], greater than 50 µM.

On to `CC[C@H](C)[C@@H](NC(=O)OC(C)(C)C)C(=O)Nc1ccc2ncnc(Nc3cccc(Br)c3)c2c1`, for which the values for the 50% inhibitory concentration (IC50) in assay [9], in assay [21] and in [15] were greater than 100 µM, 0.0555 µM and 34 µM, respectively.

`CC(C)(C)OC(=O)NCC(=O)Nc1ccc2ncnc(Nc3ccc(F)c(Cl)c3)c2c1`: the concentration for half-maximal inhibition (IC50) in assay [9] was determined as 23.7 µM; in assay [21], 0.017 µM; in assay [15], 33 µM.

With `CC(C)[C@@H](NC(=O)OC(C)(C)C)C(=O)Nc1ccc2ncnc(Nc3cccc(C(F)(F)F)c3)c2c1`, the IC50 in assay [3] was greater than 100 µM; in [9] it was greater than 100 µM; in assay [21] it was 1.02 µM; in [10], greater than 100 µM; in [11] it was 100 to 500 µM; in assay [12], greater than 100 µM. The compound also showed an IC50 in [15] of 4.3 µM.

As to `C[C@@H](NC(=O)OC(C)(C)C)C(=O)Nc1ccc2ncnc(Nc3cccc(C(F)(F)F)c3)c2c1`, the half-inhibitory concentration (IC50) in [9] is greater than 100 µM; in assay [21], greater than 100 µM; in assay [15], greater than 50 µM.

As to `CC(C)(C)OC(=O)NCC(=O)Nc1ccc2ncnc(Nc3cccc(C(F)(F)F)c3)c2c1`, the IC50 was 51 µM in assay [9] and greater than 50 µM in assay [15].

`CSCC[C@@H](NC(=O)OC(C)(C)C)C(=O)Nc1ccc2ncnc(Nc3ccc(F)c(Cl)c3)c2c1`: the results for the IC50 in assay [9] and in assay [15] were greater than 100 µM and greater than 50 µM, respectively.

In the case of `C[C@@H](NC(=O)OC(C)(C)C)C(=O)Nc1ccc2ncnc(Nc3cccc(Br)c3)c2c1`, the concentration for half-maximal inhibition (IC50) in assay [9] is greater than 100 µM; in assay [21], greater than 100 µM; in assay [15], greater than 50 µM.

For `CC(C)C[C@@H](NC(=O)OC(C)(C)C)C(=O)Nc1ccc2ncnc(Nc3cccc(Br)c3)c2c1`, the 50% inhibitory concentration (IC50) was greater than 100 µM in [9], 0.145 µM in assay [21] and 25 µM in assay [15].

Consider `CC(C)C[C@@H](NC(=O)OC(C)(C)C)C(=O)Nc1ccc2ncnc(Nc3cccc(C(F)(F)F)c3)c2c1`, for which the half-inhibitory concentration (IC50) in [9] is greater than 100 µM; in [15] it was greater than 50 µM.

The values are drawn from ChEMBL document CHEMBL4011588, “Design, synthesis, and biological evaluation of novel 4-anilinoquinazoline derivatives bearing amino acid moiety as potential EGFR kinase inhibitors” (Eur J Med Chem, 2017).
